For one assay, the target named is T1, Pyridoxal kinase (Homo sapiens, UniProt O00764).
T1 sequence (O00764 whole entry): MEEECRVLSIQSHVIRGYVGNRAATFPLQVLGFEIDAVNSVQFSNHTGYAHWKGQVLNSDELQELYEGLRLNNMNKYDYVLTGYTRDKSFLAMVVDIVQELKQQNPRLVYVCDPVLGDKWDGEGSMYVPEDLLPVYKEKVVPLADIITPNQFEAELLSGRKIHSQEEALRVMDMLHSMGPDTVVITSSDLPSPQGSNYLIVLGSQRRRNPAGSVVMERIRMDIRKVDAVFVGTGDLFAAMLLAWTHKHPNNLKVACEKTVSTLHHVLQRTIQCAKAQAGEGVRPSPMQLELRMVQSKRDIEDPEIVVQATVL

The target of assay [1] is T2, Phosphatidylinositol 5-phosphate 4-kinase type-2 gamma (Homo sapiens, UniProt Q8TBX8).
T2 sequence (Q8TBX8 whole entry): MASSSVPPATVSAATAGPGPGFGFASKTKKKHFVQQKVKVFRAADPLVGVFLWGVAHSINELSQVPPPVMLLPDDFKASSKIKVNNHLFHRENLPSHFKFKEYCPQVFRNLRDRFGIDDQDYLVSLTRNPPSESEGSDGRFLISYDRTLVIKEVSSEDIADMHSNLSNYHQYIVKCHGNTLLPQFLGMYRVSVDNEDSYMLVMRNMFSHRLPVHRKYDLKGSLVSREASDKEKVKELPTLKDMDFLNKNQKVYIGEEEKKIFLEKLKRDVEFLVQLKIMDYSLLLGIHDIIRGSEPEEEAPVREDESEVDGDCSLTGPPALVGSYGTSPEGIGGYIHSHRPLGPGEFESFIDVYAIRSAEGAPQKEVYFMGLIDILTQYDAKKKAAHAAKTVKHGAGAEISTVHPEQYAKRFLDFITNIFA

Assay [2] addresses Cyclin-dependent kinase 17 (Homo sapiens, UniProt Q00537).
In assay [3] the target is T3, DNA replication licensing factor MCM4 (Homo sapiens, UniProt P33991).
T3 sequence (P33991 whole entry): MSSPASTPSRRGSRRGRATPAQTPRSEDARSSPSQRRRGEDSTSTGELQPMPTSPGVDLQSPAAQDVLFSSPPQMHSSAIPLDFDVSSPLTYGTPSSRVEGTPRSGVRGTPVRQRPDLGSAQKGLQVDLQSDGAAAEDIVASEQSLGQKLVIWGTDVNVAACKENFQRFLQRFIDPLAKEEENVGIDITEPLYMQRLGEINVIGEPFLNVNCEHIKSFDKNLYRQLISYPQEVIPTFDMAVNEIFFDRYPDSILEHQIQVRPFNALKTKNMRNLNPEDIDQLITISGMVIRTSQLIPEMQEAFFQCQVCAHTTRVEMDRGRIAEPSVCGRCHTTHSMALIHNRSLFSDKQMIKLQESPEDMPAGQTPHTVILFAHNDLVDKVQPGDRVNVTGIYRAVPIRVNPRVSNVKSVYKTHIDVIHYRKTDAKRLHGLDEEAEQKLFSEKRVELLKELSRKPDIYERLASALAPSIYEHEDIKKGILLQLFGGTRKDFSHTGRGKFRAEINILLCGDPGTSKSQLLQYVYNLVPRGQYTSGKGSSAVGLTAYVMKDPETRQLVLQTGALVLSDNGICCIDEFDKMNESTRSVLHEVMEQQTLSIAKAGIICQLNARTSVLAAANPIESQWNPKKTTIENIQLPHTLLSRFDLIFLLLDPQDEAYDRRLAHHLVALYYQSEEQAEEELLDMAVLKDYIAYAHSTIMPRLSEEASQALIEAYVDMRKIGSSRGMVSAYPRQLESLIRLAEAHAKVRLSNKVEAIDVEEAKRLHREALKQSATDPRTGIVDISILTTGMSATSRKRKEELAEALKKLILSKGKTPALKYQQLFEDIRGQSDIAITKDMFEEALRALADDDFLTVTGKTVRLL

For assay [4], the target named is Calcium/calmodulin-dependent protein kinase type II subunit gamma (Homo sapiens, UniProt Q13555).
Sequence of Calcium/calmodulin-dependent protein kinase type II subunit gamma (Q13555 whole entry): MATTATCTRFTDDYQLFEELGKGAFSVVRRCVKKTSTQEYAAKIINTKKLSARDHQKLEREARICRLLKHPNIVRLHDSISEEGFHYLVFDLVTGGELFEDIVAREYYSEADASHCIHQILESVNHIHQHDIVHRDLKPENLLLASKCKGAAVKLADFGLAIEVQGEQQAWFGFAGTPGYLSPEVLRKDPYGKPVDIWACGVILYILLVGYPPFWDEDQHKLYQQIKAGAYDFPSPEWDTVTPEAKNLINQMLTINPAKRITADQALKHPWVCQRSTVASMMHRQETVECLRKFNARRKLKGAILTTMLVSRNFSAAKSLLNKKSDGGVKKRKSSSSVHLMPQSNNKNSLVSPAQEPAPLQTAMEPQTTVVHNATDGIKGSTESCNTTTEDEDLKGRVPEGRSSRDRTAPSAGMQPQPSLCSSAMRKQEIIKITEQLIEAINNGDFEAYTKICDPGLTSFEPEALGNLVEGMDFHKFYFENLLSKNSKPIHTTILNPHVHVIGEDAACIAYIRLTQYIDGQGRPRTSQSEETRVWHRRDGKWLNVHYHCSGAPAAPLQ
The target in assay [5] is T4, Acyl-CoA dehydrogenase family member 11 (Homo sapiens, UniProt Q709F0).
T4 sequence (Q709F0 whole entry): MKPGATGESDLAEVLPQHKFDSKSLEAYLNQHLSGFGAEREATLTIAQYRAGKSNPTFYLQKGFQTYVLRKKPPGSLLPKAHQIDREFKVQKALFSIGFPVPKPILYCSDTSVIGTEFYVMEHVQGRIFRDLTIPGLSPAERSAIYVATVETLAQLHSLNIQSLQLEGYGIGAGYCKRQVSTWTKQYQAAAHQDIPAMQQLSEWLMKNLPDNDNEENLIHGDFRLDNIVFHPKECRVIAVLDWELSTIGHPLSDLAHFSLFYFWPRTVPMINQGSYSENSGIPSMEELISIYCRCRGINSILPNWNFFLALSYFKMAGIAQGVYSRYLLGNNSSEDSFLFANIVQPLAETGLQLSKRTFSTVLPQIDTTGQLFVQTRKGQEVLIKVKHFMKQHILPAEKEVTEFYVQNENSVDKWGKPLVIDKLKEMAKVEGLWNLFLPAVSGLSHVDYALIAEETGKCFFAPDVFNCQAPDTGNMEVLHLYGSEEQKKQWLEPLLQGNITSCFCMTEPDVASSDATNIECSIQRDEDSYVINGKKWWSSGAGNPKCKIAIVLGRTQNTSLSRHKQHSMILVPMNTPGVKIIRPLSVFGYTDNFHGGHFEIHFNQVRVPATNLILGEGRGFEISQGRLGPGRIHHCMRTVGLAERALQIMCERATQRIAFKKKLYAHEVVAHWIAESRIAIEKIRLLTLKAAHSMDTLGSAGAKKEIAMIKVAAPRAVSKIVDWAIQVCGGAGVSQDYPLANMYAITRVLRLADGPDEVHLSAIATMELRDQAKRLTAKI

Assay [6] addresses STE20-like serine/threonine-protein kinase (Homo sapiens, UniProt Q9H2G2).

Molecules are shown by their SMILES. Active and inactive are the calls of the source. Cut-off read from the data, not from the text of the source, for most assays here: actives have a measured Kd and inactives only a lower limit. Where only a bound is given, the exact number is not on record here.
Note: in the data inactive means no Kd found up to 30 µM.

Sequence of Cyclin-dependent kinase 17 (Q00537 whole entry): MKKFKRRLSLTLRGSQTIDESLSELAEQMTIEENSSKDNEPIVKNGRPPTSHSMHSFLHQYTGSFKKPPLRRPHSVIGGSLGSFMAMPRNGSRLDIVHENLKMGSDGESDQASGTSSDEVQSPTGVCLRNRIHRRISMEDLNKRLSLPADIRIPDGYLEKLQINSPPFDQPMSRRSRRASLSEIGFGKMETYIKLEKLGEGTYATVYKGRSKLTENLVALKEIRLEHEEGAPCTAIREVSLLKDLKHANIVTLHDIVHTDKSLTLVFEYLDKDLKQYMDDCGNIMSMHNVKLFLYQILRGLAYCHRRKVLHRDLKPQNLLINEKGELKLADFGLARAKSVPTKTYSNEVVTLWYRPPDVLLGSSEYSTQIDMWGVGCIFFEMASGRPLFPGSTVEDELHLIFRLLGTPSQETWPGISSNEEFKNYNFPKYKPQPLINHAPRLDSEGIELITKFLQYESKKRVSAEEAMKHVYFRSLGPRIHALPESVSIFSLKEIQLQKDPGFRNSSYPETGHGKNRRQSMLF
Sequence of STE20-like serine/threonine-protein kinase (Q9H2G2 whole entry): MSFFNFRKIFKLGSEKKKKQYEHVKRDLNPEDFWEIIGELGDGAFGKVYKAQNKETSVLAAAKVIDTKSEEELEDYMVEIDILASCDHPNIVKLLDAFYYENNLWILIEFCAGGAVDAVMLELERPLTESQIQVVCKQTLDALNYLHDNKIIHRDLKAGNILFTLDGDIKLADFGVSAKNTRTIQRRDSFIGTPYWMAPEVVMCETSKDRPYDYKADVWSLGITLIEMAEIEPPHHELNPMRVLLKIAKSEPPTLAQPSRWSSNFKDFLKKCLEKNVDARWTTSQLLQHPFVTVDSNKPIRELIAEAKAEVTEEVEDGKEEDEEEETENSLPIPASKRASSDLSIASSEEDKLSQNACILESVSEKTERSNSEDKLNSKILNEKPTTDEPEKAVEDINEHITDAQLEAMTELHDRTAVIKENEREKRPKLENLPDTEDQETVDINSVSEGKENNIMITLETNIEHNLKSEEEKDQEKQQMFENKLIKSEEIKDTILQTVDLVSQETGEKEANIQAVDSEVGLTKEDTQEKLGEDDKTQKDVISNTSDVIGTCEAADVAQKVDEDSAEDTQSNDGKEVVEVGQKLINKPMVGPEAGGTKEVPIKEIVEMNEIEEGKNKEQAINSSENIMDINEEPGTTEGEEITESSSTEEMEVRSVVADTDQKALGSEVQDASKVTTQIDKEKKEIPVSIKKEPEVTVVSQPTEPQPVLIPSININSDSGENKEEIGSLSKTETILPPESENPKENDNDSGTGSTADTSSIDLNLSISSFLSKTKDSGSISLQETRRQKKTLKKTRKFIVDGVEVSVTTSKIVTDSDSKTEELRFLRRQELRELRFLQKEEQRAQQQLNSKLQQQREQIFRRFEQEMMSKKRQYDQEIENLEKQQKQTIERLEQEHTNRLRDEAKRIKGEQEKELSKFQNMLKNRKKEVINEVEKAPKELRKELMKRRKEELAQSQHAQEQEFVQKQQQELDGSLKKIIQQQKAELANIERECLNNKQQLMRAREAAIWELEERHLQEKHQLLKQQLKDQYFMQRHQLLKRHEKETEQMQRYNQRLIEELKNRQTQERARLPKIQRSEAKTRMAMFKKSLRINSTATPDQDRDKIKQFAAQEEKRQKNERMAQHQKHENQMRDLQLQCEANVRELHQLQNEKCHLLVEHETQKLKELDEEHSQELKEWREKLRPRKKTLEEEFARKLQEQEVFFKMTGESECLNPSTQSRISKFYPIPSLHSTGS

The term Kd denotes the concentration at which binding is half-saturated. Take `C[C@H]1CNCCCN1S(=O)(=O)c1cccc2cncc(F)c12`: the Kd (at Pyridoxal kinase; in assay [1]; in assay [2]; in assay [3]; in assay [4]; in assay [5]) was > 30 µM (inactive) throughout. The Kd in assay [6] was > 30 µM (inactive).
Regarding `CCNC(=O)C#Cc1ccc2c(c1)NC(=O)/C2=C(\Nc1ccc(CN(C)C)cc1)c1ccccc1`, the Kd (at Pyridoxal kinase; in assay [1]; in assay [2]; in assay [3]; in assay [4]; in assay [5]) was > 30 µM (inactive) in each case. Besides, the Kd in assay [6] was 1.49 µM (active).
For the compound `C=CC(=O)N1CCC[C@H](n2c(=O)n(-c3ccc(Oc4ccccc4)cc3)c3c(N)ncnc32)C1`, the Kd (at Pyridoxal kinase; in assay [1]; in assay [2]; in assay [3]; in assay [4]; in assay [5]) was > 30 µM (inactive) throughout. Also, the Kd in assay [6] is > 30 µM (inactive).
With `Cc1nc2cc(-c3nn(C(C)C)c4ncnc(N)c34)ccc2o1`, the Kd (at Pyridoxal kinase; in assay [1]; in assay [2]; in assay [3]; in assay [4]; in assay [5]) was > 30 µM (inactive) throughout. In addition, in assay [6], the Kd was > 30 µM (inactive).
In the case of `COCc1c(-c2ccc(NC(=O)Nc3cc(C(F)(F)F)ccc3F)c(F)c2)c2c(N)ncnn2c1CN1CCOCC1`, the Kd (on Pyridoxal kinase; in assay [1]; in assay [2]; in assay [3]; in assay [4]; in assay [5]) was > 30 µM (inactive) in each case. In assay [6], the Kd is > 30 µM (inactive).
With `O=C(Nc1c[nH]nc1-c1nc2cc(CN3CCOCC3)ccc2[nH]1)NC1CC1` [AT-9283], the Kd is > 30 µM (inactive) on Pyridoxal kinase; > 30 µM (inactive) in assay [1]; 1.15 µM (active) in assay [2]; > 30 µM (inactive) in assay [3]; > 30 µM (inactive) in assay [4]; > 30 µM (inactive) in assay [5]. Further, the equilibrium dissociation constant (Kd) in assay [6] was 0.402 µM (active).
On to `NC(=O)Nc1cc(-c2cccc(F)c2)sc1C(=O)N[C@H]1CCCNC1` [AZD-7762], for which the Kd (on Pyridoxal kinase; in assay [1]; in assay [2]; in assay [3]; in assay [4]; in assay [5]) was > 30 µM (inactive) each time. The dissociation constant Kd in assay [6] is 1.09 µM (active).
With `Cc1cc(C(=O)NOCCO)c(Nc2ccc(I)cc2F)n(C)c1=O` [AZD-8330], the Kd (on Pyridoxal kinase; in assay [1]; in assay [2]; in assay [3]; in assay [4]; in assay [5]) was > 30 µM (inactive) each time. The Kd in assay [6] is > 30 µM (inactive).
`Cn1cnc2c(F)c(Nc3ccc(Br)cc3F)c(C(=O)NOCCO)cc21` [BINIMETINIB]: the Kd (on Pyridoxal kinase; in assay [1]; in assay [2]; in assay [3]; in assay [4]; in assay [5]) was > 30 µM (inactive) throughout. Moreover, the Kd in assay [6] is > 30 µM (inactive).
In the case of `CCn1c(C(=O)N(C2CC2)C2CC2)cc2c3c(ncn3C)c(Nc3cc(C)n(C)n3)nc21` [BMS-911543], the Kd (on Pyridoxal kinase; in assay [1]; in assay [2]; in assay [3]; in assay [4]; in assay [5]) was > 30 µM (inactive) in each case. In addition, in assay [6], the Kd was > 30 µM (inactive).
Consider `COc1ccc(S(=O)(=O)N(C(C)=O)c2ccccc2/C=C/c2cc[n+]([O-])cc2)cc1` [HMN-214], for which the Kd (on Pyridoxal kinase; in assay [1]; in assay [2]; in assay [4]; in assay [5]; in assay [6]) was > 30 µM (inactive) throughout.
For `CCCCCCCCCCCCCCCCCCOP(=O)([O-])OC1CC[N+](C)(C)CC1` [PERIFOSINE], the Kd (at Pyridoxal kinase; in assay [1]; in assay [2]; in assay [3]; in assay [4]; in assay [6]) was > 30 µM (inactive) throughout.
`CC(=O)NCC(=O)N1[C@@H]2CC[C@H]1c1ccc(Nc3ncc(C(F)(F)F)c(NC4CCC4)n3)cc12` [PF-03814735]: the Kd (on Pyridoxal kinase; in assay [1]; in assay [2]; in assay [3]; in assay [5]) was > 30 µM (inactive) throughout.
In the case of `CNC(=O)c1cc(Oc2ccc(NC(=O)Nc3cc(C(C)(C)C)nn3-c3ccc4ncccc4c3)c(F)c2)ccn1` [REBASTINIB], the Kd at Pyridoxal kinase was > 30 µM (inactive); in assay [1] it was > 30 µM (inactive); in assay [2], 0.007 µM (active); in assay [4], > 30 µM (inactive); in assay [5], > 30 µM (inactive); in assay [6], > 30 µM (inactive).
As for `CN1CCN(CCOc2cc(OC3CCOCC3)c3c(Nc4c(Cl)ccc5c4OCO5)ncnc3c2)CC1` [SARACATINIB], the Kd (on Pyridoxal kinase; in assay [1]; in assay [2]; in assay [3]; in assay [4]; in assay [5]) was > 30 µM (inactive) in each case.
As to `C[C@@H](NC(=O)c1ncnc(N)c1Cl)c1ncc(C(=O)Nc2cc(C(F)(F)F)c(Cl)cn2)s1` [TOVORAFENIB], the Kd (on Pyridoxal kinase; in assay [1]; in assay [2]; in assay [3]; in assay [4]; in assay [6]) was > 30 µM (inactive) in each case.

Source of the values: ChEMBL document CHEMBL3991601, “The target landscape of clinical kinase drugs” (Science, 2017).
